Test results from PMC10321640, “The VIPR2-selective antagonist KS-133 changes macrophage polarization and exerts potent anti-tumor effects as a single agent and in combination with an anti-PD-1 antibody” (PLOS ONE, 2023).
Where a SMILES comes first, the peptide text is derived from it. Bridges are numbered along the chain shown (N, C = ends).

Tested on: CT26 tumors
Assay: In vivo anti-tumor evaluation, CT26 subcutaneous allografts
Design: species or system BALB/cCrSlc female mice
Settings: Fig 2A, KS-133 30 μg/mouse s.c. daily
Experimental: All experimental procedures that involved animals and their care were conducted in compliance with the Guide for the Care and Use of Laboratory Animals and ARRIVE guidelines. These animal experiments were approved by the Animal Care and Use Committee of Kagawa University (approval No. 21650) and conducted at Kagawa University in accordance with the guidelines. To establish subcutaneous allograft tumors, CT26 cells (1 × 10^5) were subcutaneously injected into the left groin region of BALB/cCrSlc female mice (6 weeks old; Japan SLC, Inc., Shizuoka, Japan) under isoflurane anesthesia. […] The tumor growth rate was recorded on days 1, 7, 14, and 21 by measuring the major and minor axes with a digital caliper. […]
Fig 2 Anti-tumor effects of KS-133 and KS-133 NPs with or without anti-PD-1 antibody in mice bearing CT26 subcutaneous allografts. […] (A) Anti-tumor efficacy of KS-133 (n = 9–10 mice per group, expressed as the mean ± SEM, *p < 0.01 and **p < 0.001 vs. vehicle control by two-way ANOVA). […] (B) Anti-tumor efficacy of KS-133 NPs (n = 11 mice per group, expressed as the mean ± SEM, *p < 0.05 and **p < 0.001 vs. vehicle control by two-way ANOVA). […] (C) Anti-tumor efficacy of KS-133 NPs and KS-133(P3S) NPs with an anti-PD-1 antibody (n = 6–8 mice per group, expressed as the mean ± SEM, *p < 0.01 and **p < 0.001 vs. Vehicle control by two-way ANOVA). […]

CC[C@H](C)[C@H](NC(=O)[C@H](CC(C)C)NC(=O)[C@@H]1CC(=O)NCCCC[C@@H]2NC(=O)[C@@H]3CCCN3C(=O)[C@H](CC(C)C)NC(=O)[C@H](Cc3ccc(O)cc3)NC(=O)[C@@H]3CCCN3C(=O)[C@@H]3CCCN3C(=O)[C@@H](NC(C)=O)CSSC[C@H](NC(=O)[C@H](CC(C)C)NC(=O)[C@H](Cc3ccc(O)cc3)NC2=O)C(=O)N1)C(N)=O [KS-133] (Ac-CPPYLPKYLCDLI-NH2; disulfide 1-10; lactam 7-11)
effect on CT26 tumor growth (in words) (alone or with anti-PD-1 antibody 200 μg/mouse i.p. three times in a week, combination p < 0.001 vs vehicle): tended to suppress CT26 tumor growth | tumor volume, control group set as 100% (anti-PD-1 antibody 200 μg/mouse i.p. three times in a week, 3 weeks, n = 9–10 mice per group): 66%
